This note sets out measurements from ChEMBL document CHEMBL4602619, “Covalent inactivation of Mycobacterium thermoresistibile inosine-5'-monophosphate dehydrogenase (IMPDH)” (Bioorg Med Chem Lett, 2020).

The structures appear in SMILES notation. Activity calls are given as the source filed them. The rule behind the calls is not given here.

For the assay, the system named is Mycobacterium thermoresistibile. Kind of assay: Covalent binding affinity to Mycobacterium thermoresistibile IMPDH deltaCBS variant assessed as adduct formation at Cys341 by measuring 330 Da shift of increment in protein mass measured under denaturing conditions by ESI-MS spectral analysis.

For the compound `O=P(O)(O)OC[C@H]1O[C@@H](n2cnc3c(Cl)ncnc32)[C@H](O)[C@@H]1O`, the outcome was Active.
